Activity calls are given as the source filed them. The rule behind the calls is not given here.

The subject of the first assay is HL-60. As to the kind of experiment: Cytotoxicity against human HL60 cells assessed as cell viability at 30 uM after 24 hrs by MTS assay. The assay is classed as functional.
Conditions: not given
(In general: Formazan colour is commonly taken as a measure of viable cells.)
As to `COC(=O)c1cc(OC)c2[nH]c3ccccc3c2c1CC=C(C)C`, the outcome was inactive.

For `COC(=O)c1cc2c(cc1O)[nH]c1ccccc12`, the result was inactive.

Regarding `O=Cc1cc2c(cc1O)[nH]c1ccccc12`, the outcome was inactive.

Take `COc1cc2[nH]c3ccccc3c2cc1C=O`: the outcome was inactive.

Turning to `COC(=O)c1cc(O)c2[nH]c3ccccc3c2c1CC=C(C)C`, the result was inactive.

The assay is the same for the next values; noted with them: HL-60, 24 h, read-out: Activity.
Consider `C=C(C)C1Cc2c(cc(OC)c3[nH]c4ccccc4c23)C(=O)O1` (stereo not drawn) [CLAUSAMINE B], for which the viability at 30 µM is 80.3%.

As for `COc1cc2c(c3c1[nH]c1ccccc13)CC(C(C)(C)O)OC2=O` (stereo not drawn) [CLAUSAMINE C], the viability at 30 µM turned out to be 79.7%.

Take `COC(=O)c1cc(OC)c2[nH]c3ccccc3c2c1/C=C/C(C)(C)O` [CLAUSAMINE E]: the viability at 30 µM was 47.3%.

The values are drawn from ChEMBL document CHEMBL1153771, “Gamma-lactone carbazoles from Clausena anisata” (2009).
